Measurements as given in patent publication US11530223B2, “Spiro-lactam NMDA receptor modulators and uses thereof” (Aptinyx Inc., priority 2016, dated 2022).
Like-named read-outs stand apart in the source and are kept apart here.

Key:
NMDAR2A = target: T1, NMDAR2A (Homo sapiens, UniProt Q12879); assay: [3H]MK-801 binding in NMDAR2A expressing HEK cell membranes; assay type: biochemical; parameters: key to B: log EC50: 0=−; ≥1×10^−9 M (e.g., −8)=+; <1×10^−9 M (e.g., −10)=++; settings: 50 μM glutamate; for EC50: read-out: B: log EC50 (converted); for Emax: read-out: A: % maximal [3H]MK-801 binding relative to 1 mM glycine
T1 construct: expressed in transfected cells; host or cells: HEK cells (membrane extract)
T1 sequence (Q12879 23-1464, species assumed, other chains not shown): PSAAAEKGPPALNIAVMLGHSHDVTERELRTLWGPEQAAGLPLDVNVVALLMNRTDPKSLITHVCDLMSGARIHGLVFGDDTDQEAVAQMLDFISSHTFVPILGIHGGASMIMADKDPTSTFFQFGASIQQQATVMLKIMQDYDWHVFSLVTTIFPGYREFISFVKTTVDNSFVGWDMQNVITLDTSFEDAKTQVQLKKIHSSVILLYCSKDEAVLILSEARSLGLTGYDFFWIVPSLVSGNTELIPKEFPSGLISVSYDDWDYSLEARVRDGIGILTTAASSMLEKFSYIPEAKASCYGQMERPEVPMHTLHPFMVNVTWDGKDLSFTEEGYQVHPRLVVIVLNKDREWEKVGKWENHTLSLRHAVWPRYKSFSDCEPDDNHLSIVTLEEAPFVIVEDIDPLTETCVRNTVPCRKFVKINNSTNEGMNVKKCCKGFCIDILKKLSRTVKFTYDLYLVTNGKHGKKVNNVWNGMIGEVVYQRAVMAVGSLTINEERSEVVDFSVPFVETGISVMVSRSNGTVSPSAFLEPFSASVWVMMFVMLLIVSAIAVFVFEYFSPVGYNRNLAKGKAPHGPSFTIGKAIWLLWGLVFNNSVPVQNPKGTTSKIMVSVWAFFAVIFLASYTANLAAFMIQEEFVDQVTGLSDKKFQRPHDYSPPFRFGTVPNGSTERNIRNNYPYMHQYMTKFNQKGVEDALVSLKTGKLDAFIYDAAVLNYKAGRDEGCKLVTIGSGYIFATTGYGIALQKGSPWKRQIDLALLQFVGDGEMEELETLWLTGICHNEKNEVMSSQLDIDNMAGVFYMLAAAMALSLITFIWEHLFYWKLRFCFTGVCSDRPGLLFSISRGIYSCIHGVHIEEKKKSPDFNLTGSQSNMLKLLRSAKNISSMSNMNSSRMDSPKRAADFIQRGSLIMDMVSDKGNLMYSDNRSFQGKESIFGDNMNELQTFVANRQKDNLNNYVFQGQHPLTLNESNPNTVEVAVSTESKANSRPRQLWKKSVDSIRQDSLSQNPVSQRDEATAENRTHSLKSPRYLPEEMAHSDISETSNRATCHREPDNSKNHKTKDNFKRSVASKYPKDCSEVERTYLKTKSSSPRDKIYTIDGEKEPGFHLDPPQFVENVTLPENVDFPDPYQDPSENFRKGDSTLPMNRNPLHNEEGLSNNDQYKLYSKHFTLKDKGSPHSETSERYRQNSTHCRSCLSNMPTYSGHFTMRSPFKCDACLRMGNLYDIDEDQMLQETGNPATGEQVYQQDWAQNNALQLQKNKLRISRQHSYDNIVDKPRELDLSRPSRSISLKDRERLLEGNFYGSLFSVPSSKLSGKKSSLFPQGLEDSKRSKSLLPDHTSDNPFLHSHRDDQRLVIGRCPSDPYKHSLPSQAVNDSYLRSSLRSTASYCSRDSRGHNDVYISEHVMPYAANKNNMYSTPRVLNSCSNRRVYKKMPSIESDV
Description: (§1) Assays were conducted as described by Moskal et al., “GLYX-13: a monoclonal antibody-derived peptide that acts as an N-methyl-D-aspartate receptor modulator,” Neuropharmacology, 49, 1077-87, 2005. These studies were designed to determine if the test compounds act to facilitate NMDAR activation in NMDAR2A, NMDAR2B, NMDAR2C or NMDAR2D expressing HEK cell membranes as measured by increases in [^3H]MK-801 binding.
(§2) In the assay, 300 μg of NMDAR expressing HEK cell membrane extract protein was preincubated for 15 minutes at 25° C. in the presence of saturating concentrations of glutamate (50 μM) and varying concentrations of test compound (1×10^−15M−1×10^−7M), or 1 mM glycine. Following the addition of 0.3 μCi of [^3H]MK-801 (22.5 Ci/mmol), reactions were again incubated for 15 minutes at 25° C. (nonequilibrium conditions). Bound and free [^3H]MK-801 were separated via rapid filtration using a Brandel apparatus.
(§3) In analyzing the data, the DPM (disintegrations per minute) of [^3H]MK-801 remaining on the filter were measured for each concentration of test compound or for 1 mM glycine. The DPM values for each concentration of a ligand (N=2) were averaged. The baseline value was determined from the best fit curve of the DPM values modeled using the GraphPad program and the log(agonist) vs. response (three parameters) algorithm was then subtracted from all points in the dataset. The % maximal [^3H]MK-801 binding was then calculated relative to that of 1 mM glycine: all baseline subtracted DPM values were divided by the average value for 1 mM glycine. The EC50 and % maximal activity were then obtained from the best fit curve of the % maximal [^3H]MK-801 binding data modelled using the GraphPad program and the log(agonist) vs. response (three parameters) algorithm.
(§4) The tables below summarize the results for the wild type […] NMDAR2A, NMDAR2B, NMDAR2C, and NMDAR2D, and whether the compound is not an agonist (−), is an agonist (+), or is a strong agonist (++), where column A is based on the % maximal [^3H]MK-801 binding relative to 1 mM glycine (−=0; <100%=+; and >100%=++); and column B is based on log EC50 values (0=−; ≥1×10^−9 M (e.g., −8)=+; and <1×10^−9 M (e.g., −10)=++).

NMDAR2B = target: T2, NMDAR2B (Homo sapiens, UniProt Q13224); assay: [3H]MK-801 binding in NMDAR2B expressing HEK cell membranes; assay type: biochemical; parameters: key to B: log EC50: 0=−; ≥1×10^−9 M (e.g., −8)=+; <1×10^−9 M (e.g., −10)=++; settings: 50 μM glutamate; for EC50: read-out: B: log EC50 (converted); for Emax: read-out: A: % maximal [3H]MK-801 binding relative to 1 mM glycine
T2 construct: expressed in transfected cells; host or cells: HEK cells (membrane extract)
T2 sequence (Q13224 27-1484, species assumed, other chains not shown): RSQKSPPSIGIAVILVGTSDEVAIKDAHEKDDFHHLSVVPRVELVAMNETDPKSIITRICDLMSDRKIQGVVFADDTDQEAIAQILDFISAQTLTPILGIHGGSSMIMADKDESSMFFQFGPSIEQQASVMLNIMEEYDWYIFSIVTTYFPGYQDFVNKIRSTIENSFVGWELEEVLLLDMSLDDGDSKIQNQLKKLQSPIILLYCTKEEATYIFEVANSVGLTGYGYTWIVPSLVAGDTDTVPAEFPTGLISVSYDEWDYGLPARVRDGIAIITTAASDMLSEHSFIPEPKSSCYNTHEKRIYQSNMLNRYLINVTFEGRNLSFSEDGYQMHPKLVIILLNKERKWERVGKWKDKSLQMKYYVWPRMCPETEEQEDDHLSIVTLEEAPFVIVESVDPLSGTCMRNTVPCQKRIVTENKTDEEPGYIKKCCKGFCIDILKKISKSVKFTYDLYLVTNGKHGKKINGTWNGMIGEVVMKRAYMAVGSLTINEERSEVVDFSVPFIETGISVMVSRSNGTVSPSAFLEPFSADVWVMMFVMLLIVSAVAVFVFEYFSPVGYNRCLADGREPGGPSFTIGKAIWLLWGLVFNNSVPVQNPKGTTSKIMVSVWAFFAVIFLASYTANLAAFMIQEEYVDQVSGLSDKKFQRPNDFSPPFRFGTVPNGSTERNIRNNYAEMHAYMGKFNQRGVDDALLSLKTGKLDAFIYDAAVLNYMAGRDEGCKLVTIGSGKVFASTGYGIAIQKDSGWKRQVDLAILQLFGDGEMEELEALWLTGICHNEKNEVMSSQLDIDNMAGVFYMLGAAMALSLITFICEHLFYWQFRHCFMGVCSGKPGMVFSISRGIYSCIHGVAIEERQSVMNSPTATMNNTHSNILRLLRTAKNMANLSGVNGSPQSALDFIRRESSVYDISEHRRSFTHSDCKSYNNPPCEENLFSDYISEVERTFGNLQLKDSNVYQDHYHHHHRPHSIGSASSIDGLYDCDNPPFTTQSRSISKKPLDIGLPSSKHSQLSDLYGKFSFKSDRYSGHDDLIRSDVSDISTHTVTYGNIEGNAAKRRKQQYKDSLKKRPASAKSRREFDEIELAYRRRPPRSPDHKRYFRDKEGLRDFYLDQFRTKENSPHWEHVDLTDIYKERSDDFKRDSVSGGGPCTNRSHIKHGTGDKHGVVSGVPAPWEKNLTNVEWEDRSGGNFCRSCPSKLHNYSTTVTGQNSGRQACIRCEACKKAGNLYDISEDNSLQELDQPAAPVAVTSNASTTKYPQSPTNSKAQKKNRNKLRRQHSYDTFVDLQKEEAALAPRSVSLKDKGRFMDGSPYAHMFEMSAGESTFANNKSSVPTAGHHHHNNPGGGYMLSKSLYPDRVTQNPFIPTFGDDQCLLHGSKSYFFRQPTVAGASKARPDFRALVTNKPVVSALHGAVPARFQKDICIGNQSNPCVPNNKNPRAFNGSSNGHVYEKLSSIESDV
Description: as §1, §2, §3, §4

NMDAR2D = target: T3, NMDAR2D (Homo sapiens, UniProt O15399); assay: [3H]MK-801 binding in NMDAR2D expressing HEK cell membranes; assay type: biochemical; parameters: key to B: log EC50: 0=−; ≥1×10^−9 M (e.g., −8)=+; <1×10^−9 M (e.g., −10)=++; settings: for A: % maximal [3H]MK-801 binding relative to 1 mM glycine: c3, taken as NMDAR2D
T3 construct: expressed in transfected cells; host or cells: HEK cells (membrane extract)
T3 sequence (O15399 28-1336, species assumed, other chains not shown): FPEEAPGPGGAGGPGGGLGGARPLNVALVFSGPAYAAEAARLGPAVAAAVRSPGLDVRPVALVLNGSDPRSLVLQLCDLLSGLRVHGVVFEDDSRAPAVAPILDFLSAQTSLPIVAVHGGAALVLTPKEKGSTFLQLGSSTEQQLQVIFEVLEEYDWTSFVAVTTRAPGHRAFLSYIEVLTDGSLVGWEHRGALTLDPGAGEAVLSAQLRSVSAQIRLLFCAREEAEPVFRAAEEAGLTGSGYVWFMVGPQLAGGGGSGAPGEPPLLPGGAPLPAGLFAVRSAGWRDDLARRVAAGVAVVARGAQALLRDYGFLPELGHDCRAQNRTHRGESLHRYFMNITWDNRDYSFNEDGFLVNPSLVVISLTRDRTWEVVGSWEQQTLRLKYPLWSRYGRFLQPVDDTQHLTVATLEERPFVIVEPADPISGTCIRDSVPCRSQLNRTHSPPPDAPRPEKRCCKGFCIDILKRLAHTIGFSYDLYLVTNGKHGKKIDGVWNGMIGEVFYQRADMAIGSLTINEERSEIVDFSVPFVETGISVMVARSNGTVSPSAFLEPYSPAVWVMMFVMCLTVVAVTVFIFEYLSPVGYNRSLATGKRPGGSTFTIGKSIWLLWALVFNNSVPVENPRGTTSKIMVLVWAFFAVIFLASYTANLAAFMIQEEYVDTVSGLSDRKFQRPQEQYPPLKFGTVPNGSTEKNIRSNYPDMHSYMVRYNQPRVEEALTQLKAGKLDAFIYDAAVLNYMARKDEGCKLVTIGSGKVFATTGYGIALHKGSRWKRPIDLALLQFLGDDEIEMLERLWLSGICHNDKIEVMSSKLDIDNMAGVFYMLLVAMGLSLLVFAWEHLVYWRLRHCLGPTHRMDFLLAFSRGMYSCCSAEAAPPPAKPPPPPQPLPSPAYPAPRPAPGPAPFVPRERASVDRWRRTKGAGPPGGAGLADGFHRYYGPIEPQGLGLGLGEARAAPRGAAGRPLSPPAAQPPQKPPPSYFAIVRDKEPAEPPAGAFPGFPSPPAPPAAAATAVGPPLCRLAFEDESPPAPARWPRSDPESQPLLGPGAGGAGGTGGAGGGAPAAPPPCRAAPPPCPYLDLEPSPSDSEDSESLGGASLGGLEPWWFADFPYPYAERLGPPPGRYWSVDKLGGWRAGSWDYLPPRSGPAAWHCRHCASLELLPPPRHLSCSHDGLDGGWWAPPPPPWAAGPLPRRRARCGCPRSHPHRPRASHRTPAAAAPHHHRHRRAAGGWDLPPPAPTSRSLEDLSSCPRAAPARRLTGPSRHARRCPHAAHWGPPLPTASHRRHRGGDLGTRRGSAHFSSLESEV
Description: as §1, §2, §3, §4

Sprague Dawley rats = assay: Porsolt forced swim test; assay type: in vivo; settings: 0.1 mg/kg; for % reduction in float time: relative to vehicle group
Description: A non-clinical in vivo pharmacology study (Porsolt assay) was performed to measure antidepressant-like effects. A negative control (0.5% sodium carboxymethyl cellulose in 0.9% sterile saline vehicle) and a positive control (fluoxetine) are shown for comparison against test compound. The study allowed for the evaluation of the effects of each compound on the Porsolt forced swim test as assessed by the rats' response (reduced floating time) during a 5-minute swimming test.
Male 2-3 month old Sprague Dawley rats were used (Harlan, Indianapolis, Ind.). Rats were housed in Lucite cages with aspen wood chip bedding, maintained on a 12:12 light:dark cycle (lights on at 5 AM), and given ad libitum access to Purina lab chow (USA) and tap water throughout the study.
The Porsolt forced swim test adapted for use in rats was performed as described by Burgdorf et al., (The long-lasting antidepressant effects of rapastinel (GLYX-13) are associated with a metaplasticity process in the medial prefrontal cortex and hippocampus. Neuroscience 308:202-211, 2015). Animals were placed in a 46 cm tall×20 cm in diameter clear glass tube filled to 30 cm with tap water (23±1° C.) for 15 min on the first day (habituation) and 5 min on the subsequent test day. Positive control fluoxetine was dosed 3 times (24 h, 5 h and 1 h) prior to testing. Animals were tested 1 h or 24 h post-dosing with the test compounds or vehicle. Animals received a 15 min habituation session 1 day before the 5 min test. A subset of compounds tested at 1 h post-dosing were retested at 1 wk post-dosing in the same sets of animals. Water was changed after every other animal. Animals were videotaped, and floating time as defined as the minimal amount of effort required to keep the animals head above water was scored offline by a blinded experimenter with high inter-rater reliability (Pearson's r>0.9).
Each compound tested at dose level shown. Significance vs. vehicle group for each experiment is marked. […] A compound marked “No” was not statistically significant from vehicle. Data was averaged for test compound and vehicle groups (N approximately 8 per group) and the percent reduction in floating for group treated with test compound relative to group treated with vehicle is shown.

IV pharmacokinetics = assay type: in vivo; settings: Sprague Dawley rats; for C0: normal saline (first four compounds: 5% NMP, 5% Solutol HS, 90% normal saline); for Vd: read-out: Vss
Description: Sprague Dawley rats were dosed intravenously using a normal saline formulation containing 2 mg/kg of the compounds identified in the below table (except for the first four compounds that were delivered in 5% NMP, 5% Solutol® HS and 90% normal saline formulation). The table below summarizes the results of the IV pharmacokinetics.

[1] = oral pharmacokinetics (plasma, brain, CSF); assay type: in vivo; settings: Sprague Dawley rats, per os 10 mg/kg; for Tmax: normal saline (first four compounds: 5% NMP, 5% Solutol HS, 90% normal saline)
Description: Plasma, brain, and CSF samples were analyzed at various time points over a 24 hour period.

[2] = 1 h post-dose, floating time in 5 min test
[3] = Sprague Dawley, rat, in vivo, iv, 2 mg/kg
[4] = Sprague Dawley, rat, in vivo, iv, 2 mg/kg, read-out: C0
[5] = Sprague Dawley, rat, plasma, po, 10 mg/kg
[6] = Sprague Dawley, rat, plasma, po, 10 mg/kg, read-out: Tmax
[7] = Sprague Dawley, rat, plasma, po, 10 mg/kg, plasma, read-out: Cmax

O=C1NCCC12CCCCN2 (stereo not shown) [RG-602]
A: % maximal [3H]MK-801 binding relative to 1 mM glycine (NMDAR2A): + (<100%=+)
EC50 (NMDAR2A): < 1 nM
A: % maximal [3H]MK-801 binding relative to 1 mM glycine (NMDAR2B): + (<100%=+)
EC50 (NMDAR2B): < 1 nM
A: % maximal [3H]MK-801 binding relative to 1 mM glycine (NMDAR2D; second part of table (r25-r35)): + (<100%=+)
EC50 (NMDAR2D; second part of table (r25-r35), c4, taken as NMDAR2D, read-out: B: log EC50 (converted)): < 1 nM
Significance vs. vehicle (Sprague Dawley rats; 1 wk post-dose): Yes (statistically significant (p<=0.05) from vehicle at dose level shown)
% reduction in float time (Sprague Dawley rats; 1 wk post-dose): 55.5%
Significance vs. vehicle (Sprague Dawley rats; [2]): Yes (statistically significant (p<=0.05) from vehicle at dose level shown)
% reduction in float time (Sprague Dawley rats; 1 h post-dose): 71.1%

O=C1NCCC12CCNCC2 [RG-603]
Emax (NMDAR2A): < 100%
EC50 (NMDAR2A): ≥ 1 nM
Emax (NMDAR2B): < 100%
EC50 (NMDAR2B): < 1 nM
AUC(0-t) (IV pharmacokinetics; [3]): 1570 ng·h/mL
clearance (IV pharmacokinetics; [3]): 21.1 mL/min/kg
half-life (IV pharmacokinetics; [3]): 59.4 min
C0 (IV pharmacokinetics; [4]): 5190 ng/mL
Vd (IV pharmacokinetics; [3]): 0.81 L/kg
AUC(0-t) [1, 5]: 897 ng·h/mL
bioavailability [1, 5]: 11%
Tmax [1, 6]: 60 min
Cmax [1, 7]: 311 ng/mL

CC(C)(C)OC(=O)N1CCCCC12CCNC2=O (stereo not shown) [RG-606]
A: % maximal [3H]MK-801 binding relative to 1 mM glycine (NMDAR2A): − (−=0)
B: log EC50 (NMDAR2A): −
A: % maximal [3H]MK-801 binding relative to 1 mM glycine (NMDAR2B): + (<100%=+)
EC50 (NMDAR2B): < 1 nM
A: % maximal [3H]MK-801 binding relative to 1 mM glycine (NMDAR2D; second part of table (r25-r35)): − (−=0)
B: log EC50 (NMDAR2D; second part of table, c4, taken as NMDAR2D): −
AUClast (IV pharmacokinetics; intravenous 2 mg/kg): 804 ng·h/mL
Cl (IV pharmacokinetics; intravenous 2 mg/kg): 41.29 mL/min/kg
T1/2 (IV pharmacokinetics; intravenous 2 mg/kg): 20.4 min
Vss (IV pharmacokinetics; intravenous 2 mg/kg): 0.91 L/kg
C0 (IV pharmacokinetics; intravenous 2 mg/kg): 2303 ng/mL
% F [1]: 48%
AUClast [1]: 1933 ng·h/mL
CSF Cmax [1]: 1077 ng/mL
Brain Cmax [1]: 612 ng/mL
Tmax [1]: 15 min
Cmax ([1]; plasma): 2812 ng/mL

CC(C)C(=O)N1CCCCC12CCNC2=O (stereo not shown) [RG-609]
B: log EC50 (NMDAR2A): −
Emax (NMDAR2A): 0%
B: log EC50 (NMDAR2B): −
Emax (NMDAR2B): 0%

CC(C)C(=O)N1CCCCC12CCNC2=O (stereo not shown) [RG-610]
B: log EC50 (NMDAR2A): −
B: log EC50 (NMDAR2B): −

CC(C)(C)OC(=O)N1CCC2(CCNC2=O)CC1 [RG-619]
B: log EC50 (NMDAR2A): −
Emax (NMDAR2A): 0%
B: log EC50 (NMDAR2B): −
Emax (NMDAR2B): 0%

CC(=O)N1CCC2(CCNC2=O)CC1 [RG-621]
Emax (NMDAR2A): < 100%
EC50 (NMDAR2A): < 1 nM
Emax (NMDAR2B): > 100%
EC50 (NMDAR2B): < 1 nM
AUC(0-t) (IV pharmacokinetics; [3]): 6230 ng·h/mL
clearance (IV pharmacokinetics; [3]): 5.33 mL/min/kg
half-life (IV pharmacokinetics; [3]): 103 min
C0 (IV pharmacokinetics; [4]): 4760 ng/mL
Vd (IV pharmacokinetics; [3]): 0.52 L/kg
CSF Cmax [1]: 3654.37 ng/mL
Brain Cmax [1]: 1977.29 ng/mL
AUC(0-t) [1, 5]: 29100 ng·h/mL
bioavailability [1, 5]: 93%
Tmax [1, 6]: 34.8 min
Cmax [1, 7]: 12000 ng/mL

CC(C)C(=O)N1CCC2(CCNC2=O)CC1 [RG-623]
B: log EC50 (NMDAR2A): −
Emax (NMDAR2A): 0%
Emax (NMDAR2B): < 100%
EC50 (NMDAR2B): < 1 nM
AUC(0-t) (IV pharmacokinetics; [3]): 10500 ng·h/mL
clearance (IV pharmacokinetics; [3]): 3.18 mL/min/kg
half-life (IV pharmacokinetics; [3]): 239 min
C0 (IV pharmacokinetics; [4]): 4130 ng/mL
Vd (IV pharmacokinetics; [3]): 0.56 L/kg
CSF Cmax [1]: 4727 ng/mL
Brain Cmax [1]: 4317 ng/mL
AUC(0-t) [1, 5]: 42600 ng·h/mL
bioavailability [1, 5]: 81%
Cmax [1, 7]: 10900 ng/mL
Tmax ([1]; rat, plasma, po, read-out: Tmax): 25.2 min
Significance vs. vehicle (Sprague Dawley rats; [2]): Yes (statistically significant (p<=0.05) from vehicle at dose level shown)
% reduction in float time (Sprague Dawley rats; 1 h post-dose): 60.0%
Significance vs. vehicle (Sprague Dawley rats; 24 h post-dose): Yes (statistically significant (p<=0.05) from vehicle at dose level shown)
% reduction in float time (Sprague Dawley rats; 24 h post-dose): 52.9%

O=C1NCCC12CCCN2 (stereo not shown) [RX-1, 1,7-diazaspiro[4.4]nonan-6-one]
B: log EC50 (NMDAR2A): −
Emax (NMDAR2A): 0%
B: log EC50 (NMDAR2B): −
Emax (NMDAR2B): 0%

CC(=O)N1CCCC12CCNC2=O (stereo not shown) [RZ-403]
A: % maximal [3H]MK-801 binding relative to 1 mM glycine (NMDAR2A): − (−=0)
B: log EC50 (NMDAR2A): −
A: % maximal [3H]MK-801 binding relative to 1 mM glycine (NMDAR2B): ++ (>100%=++)
EC50 (NMDAR2B): < 1 nM

CC(=O)N1CCCC12CCNC2=O (stereo not shown) [RZ-404]
A: % maximal [3H]MK-801 binding relative to 1 mM glycine (NMDAR2A): + (<100%=+)
EC50 (NMDAR2A): < 1 nM
A: % maximal [3H]MK-801 binding relative to 1 mM glycine (NMDAR2B): − (−=0)
B: log EC50 (NMDAR2B): −

CC(C)C(=O)N1CCCC12CCNC2=O (stereo not shown) [RZ-406]
A: % maximal [3H]MK-801 binding relative to 1 mM glycine (NMDAR2A): − (−=0)
B: log EC50 (NMDAR2A): −
A: % maximal [3H]MK-801 binding relative to 1 mM glycine (NMDAR2B): + (<100%=+)
EC50 (NMDAR2B): < 1 nM
